Measurements from patent publication US20140364454A1, “METAL-CHELATING COMPOUNDS HAVING AT LEAST ONE POLYAMINO CHAIN” (UNIVERSITE DE RENNES I, priority 2011, published 2014).

Key:
[1] = Potentiometry: stability constants and pFe3+ of the iron complex; type: physicochemical
Description: The complexation affinity of Quilamine with the metal ion in the organism reflects the chelating capacity or chelating power of Quilamine. This affinity can be assessed by measuring the value of pW corresponding to −log of the concentration in free metal ion W, i.e. non-complexated by the Quilamine for a ratio of respective concentrations of Quilamine (10 micromoles per liter) and metal ion (1 micromole per liter) equal to 10, at 25° C. and pH 7.4. The higher the value of pW, the greater the affinity of Quilamine with metal ion. The affinity of Quilamine with iron in its ferric form (Fe(III)) and its ferrous form (Fe(II)) is measured respectively by pFe^3+ and pFe^2+ at physiological pH (pH=7.4), at 25° C.
Potentiometry measurements were made in thermostated titration cells at 25±0.1° C., using a Metrohm 702 SM Titrino titrator connected to a Metrohm 6.0233.100. The ligand solution is prepared in a concentration of ˜1.5×10^−3 moles per liter, the solution of Fe^3+ is made from FeCl3 and titrated by complexation with a standard solution of EDTA (ethylenediaminetetracetic acid). The sample for the measurement contained approximately 0.03 millimoles per liter of ligand in a volume of 30 ml where the ionic strength is maintained at 0.1 mole per liter in using KNO3 as a support electrolyte. During the titrations, Fe^3+ is added to 0.45 or 0.9 equivalents of ligand. Each titration consists of 150-200 equilibrium points with pH varying from 2.0 to 11.5, and is repeated at least twice. The thermodynamic constants are computed with the software […] and the speciation diagram of the species is done by the Hyss program.

[2] = Continuous variation method, absorption of the Quilamine-Fe(III) complex at 580 nm; type: physicochemical; conditions: physiological pH
Description: At physiological pH, the Quilamine forms a Quilamine-Fe(III) complex preferably having a ligand:metal stoichiometry of 2/1. The ligand:metal stoichiometry can for example be determined by the continuous variation method, using the characteristic transition in the absorption spectrum of the Quilamine-Fe(III) complex at 580 nm, for chelator and iron concentrations ranging from 0 to 500 micromoles per liter.
The interaction of Quilamine HQ1-44 with iron (Fe3+) was assessed by means of a characteristic transition at 580 nm, observed in the absorption spectrum of the complex of Quilamine HQ1-44 with Fe(III). The continuous variation method consist in measuring the quantity of complex formed between Quilamine and Fe(III) deduced from the value of absorption at 580 nm, in bringing about a variation of the ratio of the concentrations in Quilamine/Quilamine+Fe(III) for a total concentration of Quilamine+Fe(III) that is constant and equal to 100 micromoles per liter (Tris/HCl buffer 100 millimoles per liter, pH 7.4).

[3] = tested on: L-ferritin and transferrin receptor genes; test: RT-qPCR of iron metabolism genes in Caco-2 cells; type: cell-based, human; conditions: Caco-2 in proliferative phase, 10 micromoles per liter, 72 hours
Description: After treatment for 72 hours of the Caco-2 cells in proliferative phase by the Quilamine HQ1-44 and ICL670 in a concentration of 10 micromoles per liter, an analysis is carried out by real-time polymerase chain reaction (RT-qPCR) technique of the expression of the two main genes for regulating intra-cell iron metabolism, that of L-ferritin, the iron-storing protein, and that of the transferrin receptor, which is the iron-importing protein of the membrane. The DNAc (complementary dioxyribonucleic acid) synthesized during the reverse transcription are amplified by the qPCR (quantity of polymerization chain reaction) to quantify the expression of the mNRA (messenger ribonucleic acid) of the genes involved in iron metabolism.

Caco-2 cells = test: Biochemical analysis of intra-cell iron, L-ferritin and transferrin soluble receptor in Caco-2 cells; type: cell-based, human; conditions: 72 hours; for intra-cell iron and L-ferritin concentrations: Caco-2, 10 micromoles per liter; for transferrin-soluble receptor: Caco-2 supernatant, 10 micromoles per liter
Description: After treatment for 72 hours of the Caco-2 cells in proliferative phase by Quilamine HQ1-44 and ICL670, biochemical analysis is carried out on the intra-cell iron (Fe2+ and Fe3+), of the two main proteins for regulating iron metabolism by the dosing of the intra-cell concentrations in L-ferritin, the iron storage protein, as well as the analysis of the transferrin soluble receptor the cell supernatant, which is a marker of the concentration in transferrin receptor, the iron importing protein of the membrane.

CHO cells = test: Cytotoxic effect on CHO cells, LDH release in supernatants; conditions: hamster, 72 h
Description: The in vitro efficacy of different Quilamines was tested on a wild cell line (CHO) of hamster ovarian cells having PTS and a mutant cell line CHO-MG without PTS. The two cell types CHO and CHO-MG were treated, 24 hours after being seeded in 96-well microplates, by concentrations of different Quilamines ranging from 0.1 to 400 micromoles per liter. The cytostatic (anti-proliferative) effects and cytotoxic effects of Quilamine after 72 hours' treatment of the cells were assessed respectively by counting cell nuclei after DNA marking by the Hoechst 33342 fluorescent intercalant dye and by analysis of membrane damage detected by the dosing of the lactate dehydrogenase activity (LHD) in the supernatants.
A comparison was made of the cytostatic or anti-proliferative action and the cytotoxic action for 72 h of treatment by Quilamine HQ1-44 and 8-hydroxyquinoline and ICL670, on the CHO cell lines in the presence and without the presence of exogenous iron, in the form of Fe(III) citrate in a concentration of 20 micromoles per liter. The results obtained are shown in FIG. 4, FIG. 4A relating to the results on cell viability and FIG. 4B relating to the results on cell toxicity.

HepG2 cells = test: Anti-proliferative effect on HepG2 cells (nuclei count or SDH activity); type: cell-based, human; conditions: HepG2, presence of exogenous iron

Row | SMILES | Constant of stability (log K), species FeL ([1]; 25.0° C., I = 0.1 M in KNO3) | Constant of stability (log K), species FeL2 ([1]; 25.0° C., I = 0.1 M in KNO3) | Constant of stability (log K), species FeL2H ([1]; 25.0° C., I = 0.1 M in KNO3) | Constant of stability (log K), species FeL2H2 ([1]; 25.0° C., I = 0.1 M in KNO3) | Constant of stability (log K), species FeL2H3 ([1]; 25.0° C., I = 0.1 M in KNO3) | Constant of stability (log K), species FeL(OH) ([1]; 25.0° C., I = 0.1 M in KNO3) | Constant of stability (log K), species FeLH ([1]; 25.0° C., I = 0.1 M in KNO3) | Constant of stability (log K), species FeLH2 ([1]; 25.0° C., I = 0.1 M in KNO3) | pFe3+ ([1]; pH 7.4) | ligand/iron stoichiometry of the complex with Fe(III) [2] | expression of the genes for L-ferritin and the transferrin receptor [3] | intra-cell iron and L-ferritin concentrations (Caco-2 cells) | transferrin-soluble receptor (Caco-2 cells) | chelator concentration giving cytotoxic effect with release of LDH (CHO cells) | influence of exogenous iron on the cytostatic effect (HepG2 cells)
1 | NCCCCNCCCCNCc1ccc2cccc(O)c2n1 [HQ1-44, 2-[4-(4-aminobutyl)aminobutyl]aminomethylquinolin-8-ol] | 25.92 | 7.8 | 10.2 | 8.0 | 8.2 | 7.37 | 6.65 | 2.88 | 27 | 2/1 | do not significantly modify | intra-cell iron depletion | no significant effect | – | –
2 | O=C(O)c1ccc(-n2nc(-c3ccccc3O)nc2-c2ccccc2O)cc1 [ICL670, reference compound] | – | – | – | – | – | – | – | – | – | – | do not significantly modify | intra-cell iron depletion | no significant effect | over 10 micromoles per liter | inhibition
